Laboratory results reported in patent publication US8633206B2, “Pyrrolo[2,3-D]pyrimidine compounds” (Pfizer Inc., priority 2009, dated 2014).

Key:
Format in all cases: biochemical
JAK1 = JAK1 (Homo sapiens (Human), UniProt P23458); test: JAK enzymatic assay (peptide mobility shift), JAK1; conditions: recombinant JAK1 20 nM, IRS-1 peptide, 240 minutes
Experimental: (§1) Recombinant JAK1 (Catalog Number PV4775), JAK2 (Catalog Number PV4210) and JAK3 (Catalog Number PV3855) were purchased from (Invitrogen Corporation, Madison, Wis.). […] Adenosine 5′-triphosphate (ATP) was obtained from (Sigma Chemical Company, St. Louis, Mo.). […] Coating Reagent 3 was purchased from (Caliper Life Sciences, Hopkinton, Mass.).
(§2) Compounds were diluted serially in 100% dimethyl sulfoxide and tested in an 11 point dose response in duplicate or quadruplicate (200 nl of compound/DMSO was added per 10 L reaction). […] The assay was run for 240 minutes for JAK1, 150 minutes for JAK2, 90 minutes for JAK3 and 70 minutes for Tyk2. […] The plates were placed on a LabChip 3000 (LC3000) instrument from (Caliper Life Sciences) to measure the formation of phosphorylated peptide. Data was analyzed using Hits Well Analyzer Software from (Caliper Life Sciences) to obtain the amount of product formed.
(§3) Data was then imported into an internal application where each data point is expressed as % inhibition based on uninhibited and no enzyme controls. Dose-response data is then fit using a 4 parameter logistic equation (Equation 1) to determine an IC50.

JAK2 = JAK2 (Homo sapiens (Human), UniProt O60674); test: JAK enzymatic assay (peptide mobility shift), JAK2; conditions: recombinant JAK2 2 nM, JAKtide peptide, 150 minutes
Chain of JAK2 (O60674 808-1132): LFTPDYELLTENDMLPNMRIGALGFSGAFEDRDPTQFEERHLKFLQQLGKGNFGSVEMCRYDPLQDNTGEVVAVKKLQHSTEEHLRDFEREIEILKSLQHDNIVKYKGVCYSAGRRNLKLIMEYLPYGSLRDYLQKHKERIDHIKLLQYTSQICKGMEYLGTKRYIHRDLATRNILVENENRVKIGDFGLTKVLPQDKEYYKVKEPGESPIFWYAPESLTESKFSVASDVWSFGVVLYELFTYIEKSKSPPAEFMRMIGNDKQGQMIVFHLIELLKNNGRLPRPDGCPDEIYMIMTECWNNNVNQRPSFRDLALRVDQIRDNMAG
Text: Recombinant JAK1 (Catalog Number PV4775), JAK2 (Catalog Number PV4210) and JAK3 (Catalog Number PV3855) were purchased from (Invitrogen Corporation, Madison, Wis.). Tyk2 (His-Tyk2 (888-1182, C936S, C1142S)) used in this study was expressed and purified at Pfizer Laboratories. Adenosine 5′-triphosphate (ATP) was obtained from (Sigma Chemical Company, St. Louis, Mo.). […] Coating Reagent 3 was purchased from (Caliper Life Sciences, Hopkinton, Mass.).
A peptide mobility shift assay was used to quantify the phosphorylation of the JAKtide (JAK2 and JAK3) or the IRS-1 peptide (JAK1 and Tyk2). Reactions were carried out in a 384-well plate (Matrical MP-101) in a 10 L total volume. […] Compounds were diluted serially in 100% dimethyl sulfoxide and tested in an 11 point dose response in duplicate or quadruplicate (200 nl of compound/DMSO was added per 10 L reaction). The reactions were initiated by the addition of enzyme to the final concentration of 2 nM JAK2, 1 nM JAK3, 12 nM Tyk2 or 20 nM JAK1. The assay was run for 240 minutes for JAK1, 150 minutes for JAK2, 90 minutes for JAK3 and 70 minutes for Tyk2. The assays were stopped at the specified times with 20 uL of 140 mM HEPES, 22.5 mM EDTA and 0.15% Coating Reagent 3. The plates were placed on a LabChip 3000 (LC3000) instrument from (Caliper Life Sciences) to measure the formation of phosphorylated peptide. Data was analyzed using Hits Well Analyzer Software from (Caliper Life Sciences) to obtain the amount of product formed.
as §3

JAK3 = JAK3 (Homo sapiens (Human), UniProt P52333); test: JAK enzymatic assay (peptide mobility shift), JAK3; conditions: recombinant JAK3 1 nM, JAKtide peptide, 90 minutes
Chain of JAK3 (P52333 781-1124): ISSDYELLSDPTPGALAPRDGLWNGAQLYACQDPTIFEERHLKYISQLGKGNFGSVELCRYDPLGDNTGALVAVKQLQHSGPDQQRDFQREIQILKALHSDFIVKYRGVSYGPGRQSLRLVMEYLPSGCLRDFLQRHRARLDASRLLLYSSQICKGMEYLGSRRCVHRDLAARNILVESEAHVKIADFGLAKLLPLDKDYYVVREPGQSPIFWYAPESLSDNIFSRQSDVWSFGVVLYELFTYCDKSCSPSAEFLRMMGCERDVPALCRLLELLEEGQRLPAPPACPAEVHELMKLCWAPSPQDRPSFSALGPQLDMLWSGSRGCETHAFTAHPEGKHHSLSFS
Experimental: as §1, §2, §3

Chain of JAK1 (P23458 whole entry): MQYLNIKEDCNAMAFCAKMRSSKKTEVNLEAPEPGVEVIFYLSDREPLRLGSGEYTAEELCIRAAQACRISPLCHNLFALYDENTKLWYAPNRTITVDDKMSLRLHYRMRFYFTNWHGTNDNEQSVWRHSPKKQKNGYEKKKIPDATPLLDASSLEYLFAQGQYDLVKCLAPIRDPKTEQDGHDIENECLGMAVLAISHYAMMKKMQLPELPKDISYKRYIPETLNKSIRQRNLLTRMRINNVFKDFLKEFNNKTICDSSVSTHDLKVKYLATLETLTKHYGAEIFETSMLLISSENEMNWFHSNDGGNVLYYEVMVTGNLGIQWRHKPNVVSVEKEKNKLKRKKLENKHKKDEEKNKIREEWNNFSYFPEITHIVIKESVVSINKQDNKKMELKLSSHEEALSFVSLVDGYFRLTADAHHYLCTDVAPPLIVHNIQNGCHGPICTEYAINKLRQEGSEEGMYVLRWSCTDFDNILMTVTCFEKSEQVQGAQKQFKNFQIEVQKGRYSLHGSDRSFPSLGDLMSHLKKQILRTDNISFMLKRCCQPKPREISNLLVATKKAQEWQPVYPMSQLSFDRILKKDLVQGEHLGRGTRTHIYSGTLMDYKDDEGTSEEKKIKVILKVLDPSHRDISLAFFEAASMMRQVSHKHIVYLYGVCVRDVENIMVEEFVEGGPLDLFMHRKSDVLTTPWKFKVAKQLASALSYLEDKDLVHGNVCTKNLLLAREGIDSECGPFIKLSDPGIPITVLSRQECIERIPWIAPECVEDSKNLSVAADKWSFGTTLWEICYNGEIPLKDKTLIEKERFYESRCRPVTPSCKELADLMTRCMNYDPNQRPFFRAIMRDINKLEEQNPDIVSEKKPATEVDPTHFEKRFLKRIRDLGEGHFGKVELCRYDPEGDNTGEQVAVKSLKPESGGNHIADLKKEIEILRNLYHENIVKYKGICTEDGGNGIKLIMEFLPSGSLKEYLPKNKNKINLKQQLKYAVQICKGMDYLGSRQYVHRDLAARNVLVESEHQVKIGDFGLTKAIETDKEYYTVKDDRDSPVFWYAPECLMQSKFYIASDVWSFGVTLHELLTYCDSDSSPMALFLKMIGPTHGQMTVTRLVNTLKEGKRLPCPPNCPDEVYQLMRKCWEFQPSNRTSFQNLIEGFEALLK

Structure (SMILES) | IC50 (JAK1) [nM] | IC50 (JAK2) [nM] | IC50 (JAK3) [nM]
CC1CCN(S(=O)(=O)C[C@H]2CC[C@H](N(C)c3ncnc4[nH]ccc34)CC2)CC1 [Example 51, N-methyl-N-(trans-4-{[(4-methylpiperidin-1-yl)sulfonyl]-methyl}cyclohexyl)-7H-pyrrolo[2,3-d]pyrimidin-4-amine] | 16.4 | 85.1 | 781
Cc1cccc(N2CCN(S(=O)(=O)C[C@H]3CC[C@H](N(C)c4ncnc5[nH]ccc45)CC3)CC2)n1 [Example 119, N-methyl-N-[trans-4-({[4-(6-methylpyridin-2-yl)piperazin-1-yl]sulfonyl}-methyl)cyclohexyl]-7H-pyrrolo[2,3-d]pyrimidin-4-amine] | 6.48 | 13.7 | 88.9
CN(c1ncnc2[nH]ccc12)[C@H]1CC[C@H](CS(=O)(=O)N2CCSC2)CC1 [Example 124, N-methyl-N-{trans-4-[(1,3-thiazolidin-3-ylsulfonyl)-methyl]cyclohexyl}-7H-pyrrolo[2,3-d]pyrimidin-4-amine] | 8.8 | 29.5 | 122
COCCOC1CCCN(S(=O)(=O)C[C@H]2CC[C@H](N(C)c3ncnc4[nH]ccc34)CC2)C1 (stereo partly drawn) [Example 139, N-[trans-4-({[3-(2-methoxyethoxy)piperidin-1-yl]sulfonyl}methyl)cyclohexyl]-N-methyl-7H-pyrrolo[2,3-d]pyrimidin-4-amine] | 0.00125 | 0.00405 | 0.0368
CN(c1ncnc2[nH]ccc12)[C@H]1CC[C@H](CS(=O)(=O)N2C[C@@H](O)[C@H](C#N)C2)CC1 [Example 36, (3S,4S)-4-hydroxy-1-[({trans-4-[methyl(7H-pyrrolo[2,3-d]pyrimidin-4-yl)amino]cyclohexyl}methyl)-sulfonyl]pyrrolidine-3-carbonitrile] | 5.35 | 18.7 | 123
CN(c1ncnc2[nH]ccc12)[C@H]1CC[C@H](CS(=O)(=O)N2CC(c3nnn[nH]3)C2)CC1 [Example 113, N-methyl-N-[trans-4-({[3-(1H-tetrazol-5-yl)azetidin-1-yl]sulfonyl}methyl)-cyclohexyl]-7H-pyrrolo[2,3-d]pyrimidin-4-amine] | 1.55 | 9.99 | 111
CN(c1ncnc2[nH]ccc12)[C@H]1CC[C@H](CS(=O)(=O)N2CCCC(O)(COc3cccc(F)c3)C2)CC1 (stereo partly drawn) [Example 19, 3-[(3-fluorophenoxy)-methyl]-1-[({trans-4-[methyl(7H-pyrrolo[2,3-d]pyrimidin-4-yl)amino]-cyclohexyl}methyl)sulfonyl]-piperidin-3-ol] | 14.8 | 46.8 | 492
CO[C@@H]1CCCN(S(=O)(=O)C[C@H]2CC[C@H](N(C)c3ncnc4[nH]ccc34)CC2)C1 [Example 60, N-(trans-4-{[(3-methoxy-piperidin-1-yl)sulfonyl]-methyl}cyclohexyl)-N-methyl-7H-pyrrolo[2,3-d]-pyrimidin-4-amine] | 1.7 | 23.7 | 203
CN(c1ncnc2[nH]ccc12)[C@H]1CC[C@H](CS(=O)(=O)N2CC[C@H](F)C2)CC1 [Example 70, N-[trans-4-({[(3S)-3-fluoropyrrolidin-1-yl]sulfonyl}methyl)cyclo-hexyl]-N-methyl-7H-pyrrolo[2,3-d]pyrimidin-4-amine] | 20.8 | 36.4 | 319
CN(c1ncnc2[nH]ccc12)[C@H]1CC[C@H](CS(=O)(=O)N2CC[C@](CO)(CCO)C2)CC1 [Example 95, 2-{3-(hydroxymethyl)-1-[({trans-4-[methyl(7H-pyrrolo[2,3-d]pyrimidin-4-yl)amino]cyclohexyl}-methyl)sulfonyl]pyrrolidin-3-yl}-ethanol] | 12.5 | 45.8 | 612
CCOC1CCCN(S(=O)(=O)CC2CCC(N(C)c3ncnc4[nH]ccc34)CC2)C1 (stereo not drawn) [Example 3, N-(trans-4-{[(3-ethoxypiperidin-1-yl)sulfonyl]methyl}cyclo-hexyl)-N-methyl-7H-pyrrolo[2,3-d]pyrimidin-4-amine] | 1.2 | 4.09 | 31.7
CN(c1ncnc2[nH]ccc12)[C@H]1CC[C@H](CS(=O)(=O)N2CCC[C@H](CS(C)(=O)=O)C2)CC1 [Example 67, N-methyl-N-{trans-4-[({3-[(methylsulfonyl)methyl]-piperidin-1-yl}sulfonyl)-methyl]cyclohexyl}-7H-pyrrolo[2,3-d]pyrimidin-4-amine] | 20.6 | 92.2 | 573
CN(C)C(=O)CO[C@@H]1CCN(S(=O)(=O)C[C@H]2CC[C@H](N(C)c3ncnc4[nH]ccc34)CC2)C1 [Example 77, N,N-dimethyl-2-({(3R)-1-[({trans-4-[methyl(7H-pyrrolo[2,3-d]pyrimidin-4-yl)amino]cyclohexyl}-methyl)sulfonyl]pyrrolidin-3-yl}oxy)acetamide] | 10.1 | 50.2 | 644
CO[C@@H]1CCN(S(=O)(=O)C[C@H]2CC[C@H](N(C)c3ncnc4[nH]ccc34)CC2)C1 [Example 68, N-[trans-4-({[(3R)-3-methoxypyrrolidin-1-yl]sulfonyl}methyl)cyclo-hexyl]-N-methyl-7H-pyrrolo[2,3-d]pyrimidin-4-amine] | 11.9 | 41.8 | 468
CN(c1ncnc2[nH]ccc12)[C@H]1CC[C@H](CS(=O)(=O)N2CC(c3ncccn3)C2)CC1 [Example 110, N-methyl-N-(trans-4-{[(3-pyrimidin-2-ylazetidin-1-yl)sulfonyl]methyl}cyclo-hexyl)-7H-pyrrolo[2,3-d]pyrimidin-4-amine] | 16.4 | 22.6 | 294
CCN(CC)C(=O)C1CCN(S(=O)(=O)C[C@H]2CC[C@H](N(C)c3ncnc4[nH]ccc34)CC2)CC1 [Example 52, N,N-diethyl-1-[({trans-4-[methyl(7H-pyrrolo[2,3-d]-pyrimidin-4-yl)amino]-cyclohexyl}methyl)sulfonyl] piperidine-4-carboxamide] | 22.6 | 115 | 1240
CN(c1ncnc2[nH]ccc12)[C@H]1CC[C@H](CS(=O)(=O)N2C[C@@H](O)[C@H](c3ccccc3)C2)CC1 [Example 29, (3S,4R)-1-[({trans-4-[methyl(7H-pyrrolo[2,3-d]pyrimidin-4-yl)amino]-cyclohexyl}methyl)sulfonyl]-4-phenylpyrrolidin-3-ol] | 5.22 | 15 | 151
CN(c1ncnc2[nH]ccc12)[C@H]1CC[C@H](CS(=O)(=O)N2C[C@@H](F)[C@H](F)C2)CC1 [Example 78, N-[trans-4-({[(3R,4R)-3,4-difluoropyrrolidin-1-yl]sulfonyl}methyl)cyclo-hexyl]-N-methyl-7H-pyrrolo[2,3-d]pyrimidin-4-amine] | 13.8 | 34.3 | 275
C[C@@H]1C[C@@H](CS(=O)(=O)N2CCC[C@H](O)C2)CC[C@@H]1N(C)c1ncnc2[nH]ccc12 [Example 131, (3S)-1-[({(1S,3R,4S)-3-methyl-4-[methyl(7H-pyrrolo[2,3-d]pyrimidin-4-yl)amino]cyclohexyl}methyl)-sulfonyl]piperidin-3-ol] | 5.28 | 12 | 32.5
